Measured values as given in patent publication US20060166957A1, “Methods of treating obesity and related disorders using tellurium selenium compounds” (priority 2003, published 2006).
Like-named read-outs stand apart in the source and are kept apart here.

Legend:
ob/ob mice = assay: AS101 in drinking water of ob/ob mice in metabolic cages: body weight, food intake, blood glucose; assay type: in vivo
Procedure: Female ob/ob mice (8 weeks old) were placed in metabolic cages and were given free drinking water and chow. After 48 h, one group of 3 mice (the Control group) continued to receive water and chow. A second group of 3 mice received drinking water containing AS 101 (7 mg/L) in addition to the standard chow. The experiment was continued for 18 days and body weights were measured daily. On the average the mice consumed about 1.5 ml of water per 24 h, corresponding to 10 microgram AS101 per mouse per day. This value corresponds to 0.25 mg/kg body weight per 24 h.
On the average, food consumption was reduced by 26±7% (p<0.02, n=16, FIG. 2).
On the last day of treatment, tail blood was withdrawn and blood glucose was determined in three control mice and three mice of the AS101 group.

[1] = system: Swiss 3T3-F442A murine pre-adipocytes; assay: Differentiation of pre-adipocytes into mature adipocytes, oil red staining; assay type: cell-based; conditions: AS101 0.2 micrograms/ml, six days in DMEM with 10% FBS, oil red stain, FIG. 6
Procedure: To gain insight on the mechanism by which AS101 affects the adipose tissue, its effect was studied on an in-vitro model of differentiation of pre-adipocytes into mature adipocytes. It should be clarified here that adipocytes are fully differentiated cells. […] Besides increase in cell volume, the only way to gain weight in vivo is by generating new adipocytes from pre-adipocytes by differentiation. Swiss 3T3-F442A murine pre-adipocytes were grown in DMEM (GIBCO, USA) with 10% calf serum. To induce differentiation into mature adipocytes, confluent cell cultures were maintained in DMEM supplemented with 10% fetal bovine serum (FBS) for six days, either in the presence or in the absence of AS101 (0.2 micrograms/ml). The cultures were then stained with oil red, which specifically stains the fat droplets within the cells.

[2] = system: liver tissue of ob/ob mice; assay: Microscopic examination of liver tissue of ob/ob mice after 18 days of AS101 treatment; assay type: in vivo; conditions: 18 days AS101 treatment, vs control mice, FIG. 4
Description: Following 18 days treatment of the ob/ob mice with AS101 as described in Example 1, the animals were sacrificed. Samples of liver tissue were taken, fixed with formaldehyde and tissue slices were examined microscopically (FIG. 4).

[3] = system: diet-induced obese C57BL/6 mice; assay: Body weight of diet-induced obese C57BL/6 mice injected daily with AS101; assay type: in vivo
Procedure: Since the obesity of ob/ob mice is of genetic origin, whereas obesity among human populations is largely due to excess eating over energy expenditure, the effect of AS101 on body weight was studied in diet-induced obese mice. Female mice were fed for 10 weeks with a high fat diet, resulting in moderate obesity (average weight 37 g). Mice were placed in metabolic cages and injected daily with either saline (Control group, 3 mice) or AS 101 (0.5 mg/kg body weight in saline, AS101 group, 3 mice). High fat diet was continued and the body weight was determined daily. […] Therefore, AS101 is an effective medicament for the treatment of diet-induced obesity.

6-week-old mice = conditions: cited from earlier work

For `Cl[TeH]1(Cl)(Cl)OCCO1` [AS101, ammonium trichloro(dioxoethylene-O,O′)tellurate], the body weight gain (ob/ob mice; female ob/ob mice, AS101 7 mg/L in drinking water (0.25 mg/kg body weight per 24 h), 18 days, vs Control group, FIG. 1) was “did not gain weight significantly”, the “reduction of food consumption, on the average” value (ob/ob mice; female ob/ob mice, AS101 7 mg/L in drinking water, daily food consumption, p<0.02, n=16, FIG. 2) was 26±7% and the blood glucose (ob/ob mice; ob/ob mice, tail blood on the last day of treatment (18 days), AS101 7 mg/L in drinking water, FIG. 3) was “statistically significant (p<0.05) reduction”. The “differentiation of pre-adipocytes into mature adipocytes (fat droplets)” value [1] was “inhibited the differentiation”, the “number and size of adipocytes in liver tissue” value [2] was “extensive reduction in the number of adipocytes and in their size” and the body weight ([3]; female mice on high fat diet, AS101 0.5 mg/kg body weight in saline injected daily, vs saline control, FIG. 5) was “reduced significantly and continued to drop through the entire study”. For the same molecule, the food intake ([3]; normal mice rendered obese by high-fat diet, AS101 by daily injections) was “reduction of food intake”, the LD50 (6-week-old mice) was 300 μg/25 g of body weight and the LD50 (6-week-old mice; same value re-expressed) was 12 mg/kg body weight.
